According to patent publication US20110020359A1, “METHODS AND COMPOSITIONS FOR TREATING NEURONAL DAMAGE OR DEGENERATION” (California Institute of Technology, priority 2009, published 2011):
One block for each molecule: values may come before it.

Tests used:
[1] = tested on: dissociated rat P5-9 CGN cultures; experiment: Cerebellar granule neuron (CGN) neurite outgrowth assay; assay type: cell-based; conditions: P7 rat CGNs
Description: Nitric acid-treated, 15-mm round German glass coverslips are coated with P-Orn in pH 6-8.5 borate buffer (at approximately 50 μg/ml) for about 1 hr at 37° C. and 5% CO2. CSPGs (at approximately 1 μg/ml) or polysaccharides enriched in the CS-A, CS-C, or CS-E sulfation motifs (at approximately 1 μg/ml) are coated on the P-Orn-coated coverslips overnight at 37° C. and 5% CO2. Cerebella from P5-9 Sprague Dawley rats are dissected, purified as described above, and cultured on the coated coverslips at a cell density of about 200 cells/mm^2. Neurons are grown in DMEM/F12, 1% FBS, and N1 supplement for about 24 hr.
In one example, inhibitors against MEK (PD98059, 25 μM; Calbiochem), EGFR (AG1478, 15 nM; Calbiochem), ROCK (Y27632, 5 μM; Calbiochem) and JNK (JNK Inhibitor II, 10 μM; Calbiochem) are added in solution at the start of culturing, and neurons are grown for 24 hr. For neurite outgrowth experiments from p75 knockout mice, cerebella from P5-7 mice, either C57BL/6 wild-type or p75−/− knockout mice, are dissected and purified as described above. Neurons are plated at a density of 200-300 cells/mm2 and cultured for about 24 hr. Cells are then fixed in 4% PFA/10% sucrose, immunostained with neuronal specific anti-class III β-tubulin antibody (TUJ1; Covance), and evaluated for neurite outgrowth. Neurons are imaged using a Nikon TE2000-S fluorescent microscope and quantified using the NIH software Image J. Statistical analysis is performed using the one-way ANOVA; n=50-200 cells per experiment.
P7 rat CGNs are grown for 24 hours on CS-E (1 μg/ml) in the presence of the CS-E antibody (CS-E Ab; 10 μg/ml).

[2] = tested on: Retinal ganglion cell axons; experiment: Optic nerve regeneration assay; conditions: counted at 125-μm intervals from the crush site
Description: At 1-14 days post injury, mice are given an overdose of pentobarbital and are transcardially perfused with 4% PFA. Eyeballs still attached with the optic nerve are dissected and post-fixed in 4% PFA overnight. Following cryoprotection with 30% sucrose in PBS, tissues are embedded in O.C.T. and serial sectioned for 5-20 μm along the longitudinal direction of the nerve. For immunofluorescence labeling, the sections are washed with PBS, pre-incubated in a blocking buffer (approximately 1% BSA, 0.3%TX-100 in PBS) and followed by sequential incubations with primary antibodies, including mouse anti-CS-E (1:200), goat-anti-CTB (1:4000), or rabbit anti-IβIII-tubulin antibodies (Invitrogen). […] The retinal cryosections are mounted with Vectashield and visualized under a Nikon fluorescence microscope. To quantify the number of CTB-positive regenerating axons, the number of regenerating axons is counted at 125 μm stepwise from the crush site of the optic nerve. The total number of regenerating axons is estimated. To quantify the number of surviving retinal ganglion cells, the total number of βIII-tubulin positive cells is counted in at least 3 retinal sections per retina.
(1.7 mg/ml) antibody treatment placed around the crush site of the nerve are studied. […] The extent of axonal regrowth is assessed 2 weeks after injury.

[3] = Oligosaccharide microarray; assay type: binding
Description: Ozonolysis of the anomeric allyl group and linkage of CS compounds 1-41,2 to 1,2-(bisaminooxy)ethane3 proceeds as follows: oligosaccharide (0.51 μmol) is dissolved in MeOH (500 μL) and cooled to −78° C. O3 is bubbled through the reaction until a blue color persists (1 min). The reaction is then purged with N2 until colorless, quenched with Ph3P beads (3 mg), and gradually warmed to rt over 12 h. The reaction is filtered and the product concentrated to afford the desired aldehyde as a white solid. The aldehyde (0.51 μmol) is then reacted for 14 h at rt with 1,2-(bisaminooxy)ethane hydrochloride (1.4 mg, 15 μmol) that has been dissolved in H2O (100 μL) and pH adjusted to 5.0 with 1 M NaOH. The resulting oxime product is purified using a SepPak C18 column (500 mg, H2O) and Sephadex G-10 (CS-E disaccharide, H2O) or Sephadex G-25 (tetrasaccharides, H2O) to afford a white solid in quantitative yield (0.51 μmol). CS-A aminooxy: ESI MS: m/z: calculated for C32H48N4Na3O31S2: 1117.1; found 1117.0. CS-C aminooxy: ESI MS: m/z: calculated for C32H48N4Na3O31S2: 1117.1; found 1117.0. CS-E aminooxy: ESI MS: m/z: calculated for C32H46N4Na5O37S4: 1321.0; found 1321.0. CS-E di amminooxy: ESI MS: m/z: calculated for C18H28N3Na2O20S2: 716.1; found 716.0. […]

[4] = Pull-down with biotinylated CS-E; assay type: binding; conditions: COS-7 cell lysates, immunoblot
Description: Pull down assays can be useful for identifying proteins which bind to CS (e.g. CS-A, CS-C, or CS-E). Pull down assays can also be used for identifying agents that disrupt the binding between CS and a known binding partner. Full-length human p75 cDNA (amino acids 1-427; Open Biosystems) is ligated into a pcDNA3 vector (Invitrogen), modified to fuse an HA tag to the 5′ end of the insert. Human NgR (amino acids 27-473; imaGenes) is ligated into a modified pAPtag-5 vector (GenHunter) which fuses a secretion signal sequence and a c-myc tag to the 3′ end of the insert. COS-7 cells are transfected with either NgR-myc, p75-HA, or both using the Lipofectamine (Invitrogen) method. Cells are lysed about 2 days after transfection with 0.5-2% Triton X-100 in PBS containing a protease inhibitor mixture (Roche) by rocking for 15-90 min at 4° C. The lysates are clarified by centrifugation at 5-25,000 rpm for 1-30 min.
Biotin is attached to the free amino group of the residual core peptides of CS-C and CS-E polysaccharides (Seikagaku). […]
Biotinylated CS-C or CS-E (approximately 280 μg each) in 100-500 μl of PBS is added to streptavidin agarose resin (about 140 μl; Pierce) and incubated at room temperature for about 1 hr. […] NgR-myc and p75-HA are detected by immunoblotting with myc-tag (Cell Signaling) or HA-tag (Sigma) antibodies.

Molecule: chondroitinaseABC
inhibition of neurite outgrowth after digestion of CS-E polysaccharides [1]: small extent of residual inhibition | number of regenerating axons compared with control IgG [2]: significantly more regenerating axons

binding to CS-E polysaccharides, oligosaccharide microarray [3]: bind to CS-E polysaccharides
B1: OMgp: oligodendrocyte myelin protein (OMgp) (protein, UniProt P23515 25-417, looked up)
Oligodendrocyte-myelin …: ICPLQCICTERHRHVDCSGRNLSTLPSGLQENIIHLNLSYNHFTDLHNQLTQYTNLRTLDISNNRLESLPAHLPRSLWNMSAANNNIKLLDKSDTAYQWNLKYLDVSKNMLEKVVLIKNTLRSLEVLNLSSNKLWTVPTNMPSKLHIVDLSNNSLTQILPGTLINLTNLTHLYLHNNKFTFIPDQSFDQLFQLQEITLYNNRWSCDHKQNITYLLKWMMETKAHVIGTPCSTQISSLKEHNMYPTPSGFTSSLFTVSGMQTVDTINSLSVVTQPKVTKIPKQYRTKETTFGATLSKDTTFTSTDKAFVPYPEDTSTETINSHEAAAATLTIHLQDGMVTNTSLTSSTKSSPTPMTLSITSGMPNNFSEMPQQSTTLNLWREETTTNVKTPLPS

B2: Full-length EphB3: full-length Ephrin receptor B3 (protein, UniProt P54753 1-998, looked up)
chain: MARARPPPPPSPPPGLLPLLPPLLLLPLLLLPAGCRALEETLMDTKWVTSELAWTSHPESGWEEVSGYDEAMNPIRTYQVCNVRESSQNNWLRTGFIWRRDVQRVYVELKFTVRDCNSIPNIPGSCKETFNLFYYEADSDVASASSPFWMENPYVKVDTIAPDESFSRLDAGRVNTKVRSFGPLSKAGFYLAFQDQGACMSLISVRAFYKKCASTTAGFALFPETLTGAEPTSLVIAPGTCIPNAVEVSVPLKLYCNGDGEWMVPVGACTCATGHEPAAKESQCRPCPPGSYKAKQGEGPCLPCPPNSRTTSPAASICTCHNNFYRADSDSADSACTTVPSPPRGVISNVNETSLILEWSEPRDLGGRDDLLYNVICKKCHGAGGASACSRCDDNVEFVPRQLGLTERRVHISHLLAHTRYTFEVQAVNGVSGKSPLPPRYAAVNITTNQAAPSEVPTLRLHSSSGSSLTLSWAPPERPNGVILDYEMKYFEKSEGIASTVTSQMNSVQLDGLRPDARYVVQVRARTVAGYGQYSRPAEFETTSERGSGAQQLQEQLPLIVGSATAGLVFVVAVVVIAIVCLRKQRHGSDSEYTEKLQQYIAPGMKVYIDPFTYEDPNEAVREFAKEIDVSCVKIEEVIGAGEFGEVCRGRLKQPGRREVFVAIKTLKVGYTERQRRDFLSEASIMGQFDHPNIIRLEGVVTKSRPVMILTEFMENCALDSFLRLNDGQFTVIQLVGMLRGIAAGMKYLSEMNYVHRDLAARNILVNSNLVCKVSDFGLSRFLEDDPSDPTYTSSLGGKIPIRWTAPEAIAYRKFTSASDVWSYGIVMWEVMSYGERPYWDMSNQDVINAVEQDYRLPPPMDCPTALHQLMLDCWVRDRNLRPKFSQIVNTLDKLIRNAASLKVIASAQSGMSQPLLDRTVPDYTTFTTVGDWLDAIKMGRYKESFVSAGFASFDLVAQMTAEDLLRIGVTLAGHQKKILSSIQDMRLQMNQTLPVQV
modifications: full-length
notes: full-length Ephrin receptor B3
pull-down by CS-E [4]: is pulled down
